The record followed here is US11198692B2, “Dihydro-pyrrolo-pyridine derivatives” (Pfizer Inc., priority 2017, dated 2021).

This assay addresses T1, Human M4 receptors (Homo sapiens, UniProt P08173).
T1 construct: expressed in transfected cells
T1 sequence (P08173 1-479): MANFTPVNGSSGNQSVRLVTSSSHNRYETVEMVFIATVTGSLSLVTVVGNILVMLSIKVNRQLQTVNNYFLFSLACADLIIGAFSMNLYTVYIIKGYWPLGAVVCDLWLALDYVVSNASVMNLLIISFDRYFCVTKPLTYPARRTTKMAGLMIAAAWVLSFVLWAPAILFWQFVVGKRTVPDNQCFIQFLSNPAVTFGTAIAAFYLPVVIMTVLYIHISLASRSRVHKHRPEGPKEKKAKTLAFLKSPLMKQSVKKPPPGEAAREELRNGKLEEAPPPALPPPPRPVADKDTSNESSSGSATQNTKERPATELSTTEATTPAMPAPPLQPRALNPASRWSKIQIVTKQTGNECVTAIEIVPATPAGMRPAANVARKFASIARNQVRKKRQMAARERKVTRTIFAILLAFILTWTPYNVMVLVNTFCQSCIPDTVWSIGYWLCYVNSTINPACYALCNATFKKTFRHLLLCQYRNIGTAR
In words: M4 PAM cAMP assay (GloSensor). Format: cell-based. Conditions: HEK293 GloSensor cells expressing hM4, with EC20 acetylcholine and isoproterenol, geometric mean of 2-4 determinations unless footnoted (b: >=5, c: single). In short, it runs like this: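 hM4-expressing HEK293 GloSensor cells were equilibrated 2 h at RT with GloSensor reagent, then given compound with EC20 acetylcholine and isoproterenol (EC80) for 10 min at RT before reading. Effect normalised to 10 μM acetylcholine and DMSO; 10-point duplicate curves fitted 4-parameter for EC50 and Emax (top asymptote).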
(In general: cAMP levels reflect the balance of adenylyl cyclase and phosphodiesterase activity.)

With `CNc1nc(C)c(C)c2c1CN(C(=O)CC1CN(c3ccnc(OC(F)F)c3)C1)C2C` (single isomer, unassigned) [Example 50, 2-{1-[2-(difluoromethoxy)pyridin-4-yl]azetidin-3-yl}-1-[1,6,7-trimethyl-4-(methylamino)-1,3-dihydro-2H-pyrrolo[3,4-c]pyridin-2-yl]ethanone], the EC50 was found to be 9.88 nM. Besides, the “EC50 Mean Asymptote Maximum (%)” value (Emax = maximum asymptote of fitted dose response curve) was 104^c %.

What is called EC50 is the concentration giving half of the maximal effect. A higher EC50 goes with a need for much substance.
